From patent US20100285145A1, “GPR 119 MODULATORS” (PFIZER INC, priority 2009, published 2010)
pEC50: −log10 of the molar value. Where “and” joins values, the source holds several entries; their conditions need not be identical. Equal values may be shown once.

Legend:
human GPR119 [1] = target: T1, human GPR119 (Homo sapiens, UniProt Q8TDV5); assay: cAMP HTRF functional assay (hGPR119 HEK-CRE beta-lactamase cells); format: cell-based; set-up: host or cells: HEK293-CRE beta-lactamase; settings: for Emax: read-out: Intrinsic Activity (Human cAMP)
T1 sequence (Q8TDV5 1-335): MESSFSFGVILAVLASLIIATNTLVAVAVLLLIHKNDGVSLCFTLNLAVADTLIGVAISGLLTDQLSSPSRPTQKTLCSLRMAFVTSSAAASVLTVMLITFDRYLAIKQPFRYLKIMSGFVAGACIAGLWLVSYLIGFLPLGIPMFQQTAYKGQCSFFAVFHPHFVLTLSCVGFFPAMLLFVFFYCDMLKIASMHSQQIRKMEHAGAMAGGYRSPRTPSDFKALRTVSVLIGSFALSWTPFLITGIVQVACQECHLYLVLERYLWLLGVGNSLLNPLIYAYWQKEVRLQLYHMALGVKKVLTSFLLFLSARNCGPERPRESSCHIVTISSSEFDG
Procedure, shortened: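 hGPR119 HEK-CRE cells (5000/well), cultured overnight, then treated 30 min at room temperature with compound plus 400 microM IBMX (0.58% DMSO). cAMP measured by competitive HTRF immunoassay after 60 min lysis/detection, converted to nM via standard curve; EC50 from 4-parameter logistic fit.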

human GPR119 [2] = target: T1, human GPR119; assay: β-Arrestin PathHunter assay (U2OS hGPR119 β-arrestin cells); format: cell-based; settings: for pEC50: read-out: Human B-arrestin Functional EC50; for Emax: U2OS, read-out: Intrinsic Activity (Human B-arrestin)
Procedure, shortened: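 Cells carry ProLink-tagged GPR119 and EA-fused β-arrestin; 5000 cells/well were plated overnight in Opti-MEM with 2% charcoal-dextran serum. Compounds were applied for 90 min at 37 °C in HBSS/20 mM HEPES pH 7.0/0.1% BSA (0.5% DMSO), followed by Galacton Star substrate for 60 min at RT and a luminescence read. EC50 came from a 4-parameter logistic fit.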

[3] = HTRF cAMP, 30 min, 400 microM IBMX, each line a separate determination
[4] = percent of maximal activity relative to standard GPR119 agonist at 10 micromolar
[5] = U2OS hGPR119 β-arrestin cells, 90 min, each line a separate determination
[6] = curve was extrapolated to 100% to calculate an EC50
[7] = marked **: curve was extrapolated to 100%

pEC50 (human GPR119 [1]; [3]) | Intrinsic Activity (Human cAMP) (human GPR119 [1]; [4]) | Emax (human GPR119 [1]; [4]) [%] | pEC50 (human GPR119 [2]; [5]) | Emax (human GPR119 [2]; [4]) [%] | pEC50 (human GPR119 [1]; [6]) | Intrinsic Activity (Human cAMP) (human GPR119 [1]; [7]) | Emax (human GPR119 [1]; [7]) [%] | Emax (human GPR119 [2]; [7]) [%] | pEC50 (human GPR119 [2]; [6]) | Intrinsic Activity (Human B-arrestin) (human GPR119 [2]; [4]) | Compound
7.07 and 6.94 | 94.2% | 95.3 | 8.32 | 70 | – | – | – | – | – | – | CC(C)OC(=O)N1CCC(Oc2ncnc(N3CCc4cc(S(C)(=O)=O)ccc43)c2C#N)CC1 [Example 6, Isopropyl 4-({5-cyano-6-[5-(methylsulfonyl)-2,3-dihydro-1H-indol-1-yl]pyrimidin-4-yl}oxy)piperidine-1-carboxylate]
6.11 and 5.94 and 5.93 and 6.48 and 6.10 | 56.5% (2×) and 53.6% and 44% | 56 | – | – | 5.09 and 5.02 and 5.08 | 100** % | 100 | 100 | 5.59 | – | CC(C)OC(=O)N1CCC(Oc2cc(N3CCc4ncccc43)ncn2)CC1 [Example 12, Isopropyl 4-{[6-(2,3-dihydro-1H-pyrrolo[3,2-b]pyridin-1-yl)pyrimidin-4-yl]oxy}piperidine-1-carboxylate]
– | 27.9% and 29.5% and 16.7% | 26.3 | – | 51.6 | – | – | – | – | – | – | Cc1c(O[C@@H]2[C@@H]3COC[C@H]2CN(C(=O)OC(C)C)C3)ncnc1N1CCc2cc(S(C)(=O)=O)ccc21 [Example 23, Isopropyl (9-syn)-9-({5-methyl-6-[5-(methylsulfonyl)-2,3-dihydro-1H-indol-1-yl]pyrimidin-4-yl}oxy)-3-oxa-7-azabicyclo[3.3.1]nonane-7-carboxylate]
7.54 and 6.90 and 6.65 and 6.70 and 7.31 and 6.82 and 7.20 and 6.69 and 6.98 | 107% | – | 7.66 and 7.83 and 7.14 | – | – | – | – | – | – | 75.8% and 62.2% and 87.9% | CC(C)OC(=O)N1CCC(Oc2cc(N3CCc4cc(S(C)(=O)=O)ccc43)ncn2)CC1 [Example 3, Isopropyl 4-({6-[5-(methylsulfonyl)-2,3-dihydro-1H-indol-1-yl]pyrimidin-4-yl}oxy)piperidine-1-carboxylate]
7.01 and 6.95 and 7.04 and 6.79 | 65.1% and 67.6% and 43.6% and 50% | – | 7.62 and 7.74 and 7.67 and 7.58 | 68.6 | – | – | – | – | – | 82.5% and 68.9% and 73.4% | CCC1(OC(=O)N2C[C@H]3COC[C@@H](C2)[C@H]3Oc2ncnc(N3CCc4ncccc43)c2C)CC1 [Example 26, 1-Ethylcyclopropyl (9-anti)-9-{[6-(2,3-dihydro-1H-pyrrolo-[3,2-b]pyridin-1-yl)-5-methylpyrimidin-4-yl]oxy}-3-oxa-7-azabicyclo[3.3.1]nonane-7-carboxylate]
7.99 and 7.89 and 7.31 | 102% and 93.5% | 92.5 | 9.00 | 77.1 | – | – | – | – | – | – | CC(C)(C)OC(=O)N1CCC(Oc2cc(N3CCc4cc(S(C)(=O)=O)ccc43)ncn2)C(F)C1 (racemic) [Example 15, tert-Butyl 3-fluoro-4-({6-[5-(methylsulfonyl)-2,3-dihydro-1H-indol-1-yl]pyrimidin-4-yl}oxy)piperidine-1-carboxylate]
